According to patent USRE38117E1, “Trioxane dimer compound having antiproliferative and antitumor activities” (Hauser, Inc., priority 1995, dated 2003):

Experiments:
[1] = tested on: murine keratinocyte cell line PE; test: Growth inhibition of PE cells (MTT assay); type: cell-based; conditions: murine keratinocytes, FIGS. 1-9
Experimental: To determine the inhibitory effect of the trioxane dimers of the present invention on cell proliferation, screening assays were performed on a murine keratinocyte cell line PE. […] PE cell culture medium consisted of Eagle's minimal essential medium without calcium chloride (Whittaker Bioproducts, Walkersville, Ma.) supplemented with 8% chelexed fetal calf serum and 1% antibiotic-antimycotic (Gibco BRL) and the addition of CaCl2 to 0.05 mM Ca^++. […] (St. Louis, Mo.), and TPA was supplied by L. C. Services (Woburn, Ma.). L-[^14C]ornithine ([…]) was from Amersham/Searle Corp. (Arlington Heights, Ill.). Chemical solvents used in all assays of biological activity were of the highest grade commercially available. Growth Inhibition. […] A mitochondrial dehydrogenase reduces MTT to a blue formazan product with an absorbance maximum of 505 nm in DMSO; the number of viable cells can thus be determined spectrophotometrically. PE cells were seeded at a density of 5,000 cells/well in 50 μL of medium into 96-well microtiter plates. […] The plates were fed once at 48 h, with the readdition of the vitamin D3 analogs at this time. […] After 4 h, the MTT was removed and DMSO added to dissolve the blue formazan dye. Using a microtiter plate reader, the […] was then determined and cell number calculated from blank-subtracted absorbance values.

[2] = tested on: P. berghei; conditions: Klayman 1985; cited from earlier work
[3] = tested on: murine keratinocyte cell line PE; test: Viability of PE cells by trypan blue exclusion; type: cell-based; conditions: 96 h

Compound	antiproliferative activity [1]	also measured
4β-Hydroxymethyl Trioxane Terephthalate Dimer [Compound 24]	significant antiproliferative activity	
COC1OC2(C)CCC3CCCC(CCOC(=O)CCCC(=O)OCCC4CCCC5CCC6(C)OOC45C(OC)O6)C31OO2 (stereo not drawn) [Compound 15, Trioxane Bis-ester Dimer]	the most active	
COC1OC2(C)CCC3CCCC(CCOP(=O)(OCCC4CCCC5CCC6(C)OOC45C(OC)O6)Oc4ccccc4)C31OO2 (stereo not drawn) [Compound 20, Bis-trioxane phosphate ester]	Neither phosphate dimers 20, and 21 nor phosphonate dimer 22 has significant antiproliferative activity	
COC1OC2(C)CCC3CCCC(CCOP(=O)(OC)OCCC4CCCC5CCC6(C)OOC45C(OC)O6)C31OO2 (stereo not drawn) [Compound 21, Bis-trioxane phosphate ester]	Neither phosphate dimers 20, and 21 nor phosphonate dimer 22 has significant antiproliferative activity	
CC1=CO[C@@H]2O[C@]3(C)CC[C@H]4[C@H](C)CC[C@@H]1[C@@]24OO3 [III]		activity against P. berghei-infected mice [2]: inactive
C=C1/C(=C\C=C2/CCC[C@]3(C)[C@@H]([C@H](C)CCCC(C)(C)O)CC[C@@H]23)C[C@@H](O)C[C@@H]1O [calcitriol, 1α, 25-dihydroxyvitamin D3]		viability of the cells [3]: identical to control cells
